In patent US10201523B2, “Use of wilforlide A for overcoming chemotherapy resistance” (WESTERN UNIVERSITY OF HEALTH SCIENCES, priority 2013, dated 2019):
“And” between values parts separate entries of the source, which are not always exact repeats. Identical values can stand only once.

System: PC3
Experiment: SRB cell viability assay, docetaxel with/without wilforlide A pretreatment
Settings: PC3
[1] = no wilforlide A pre-Tx (control of Table 4), docetaxel 0.001 nM 72 h
[2] = no wilforlide A pre-Tx (control of Table 4), docetaxel 0.1 nM 72 h
[3] = no wilforlide A pre-Tx (control of Table 4), docetaxel 0.333 nM 72 h
[4] = no wilforlide A pre-Tx (control of Table 4), docetaxel 1 nM 72 h
[5] = no wilforlide A pre-Tx (control of Table 4), docetaxel 3.33 nM 72 h
[6] = no wilforlide A pre-Tx (control of Table 4), docetaxel 10 nM 72 h
[7] = no wilforlide A pre-Tx (control of Table 4), docetaxel 33.3 nM 72 h
[8] = no wilforlide A pre-Tx (control of Table 4), docetaxel 100 nM 72 h
[9] = no wilforlide A pre-Tx (control of Table 6), docetaxel 0.001 nM 72 h
[10] = no wilforlide A pre-Tx (control of Table 6), docetaxel 0.1 nM 72 h
[11] = no wilforlide A pre-Tx (control of Table 6), docetaxel 0.333 nM 72 h
[12] = no wilforlide A pre-Tx (control of Table 6), docetaxel 1 nM 72 h
[13] = no wilforlide A pre-Tx (control of Table 6), docetaxel 3.33 nM 72 h
[14] = no wilforlide A pre-Tx (control of Table 6), docetaxel 10 nM 72 h
[15] = no wilforlide A pre-Tx (control of Table 6), docetaxel 33.3 nM 72 h
[16] = no wilforlide A pre-Tx (control of Table 6), docetaxel 100 nM 72 h
[17] = no wilforlide A pre-Tx (control of Table 8), docetaxel 0.001 nM 72 h
[18] = no wilforlide A pre-Tx (control of Table 8), docetaxel 0.1 nM 72 h
[19] = no wilforlide A pre-Tx (control of Table 8), docetaxel 0.333 nM 72 h
[20] = no wilforlide A pre-Tx (control of Table 8), docetaxel 1 nM 72 h
[21] = no wilforlide A pre-Tx (control of Table 8), docetaxel 3.33 nM 72 h
[22] = no wilforlide A pre-Tx (control of Table 8), docetaxel 10 nM 72 h
[23] = no wilforlide A pre-Tx (control of Table 8), docetaxel 33.3 nM 72 h
[24] = no wilforlide A pre-Tx (control of Table 8), docetaxel 100 nM 72 h
[25] = wilforlide A 0.6 μg/ml pre-Tx, docetaxel 0.1 nM 72 h
[26] = wilforlide A 0.6 μg/ml pre-Tx, docetaxel 0.333 nM 72 h
[27] = wilforlide A 0.6 μg/ml pre-Tx, docetaxel 1 nM 72 h
[28] = wilforlide A 0.6 μg/ml pre-Tx, docetaxel 3.33 nM 72 h
[29] = wilforlide A 0.6 μg/ml pre-Tx, docetaxel 10 nM 72 h
[30] = wilforlide A 0.6 μg/ml pre-Tx, docetaxel 33.3 nM 72 h
[31] = wilforlide A 0.6 μg/ml pre-Tx, docetaxel 100 nM 72 h

Method: Following the 72 hour wilforlide A treatment, a sulforhodamine B (SRB) assay was used to quantitate living cells. To perform the assay, the wilforlide A media was aspirated from each well, and replaced with a 10% solution of cold trichloroacetic acid (TCA) (Cat #: T6399, purchased from Sigma-Aldrich), and incubated for one hour at 4° C. After the TCA incubation, the TCA solution was aspirated, and the cells were washed five times with tap water. After removing the last wash, the plates were left with lids off at room temperature until the surfaces were dry, which took one to two hours. Then 50 μl of a 0.4% solution of sul-forhodamine B (SRB) sodium salt (Cat #: S9012, purchased from Sigma-Aldrich) was added to each well and the plates were incubated at room temperature for 20 to 30 minutes. Afterwards, the wells were washed five times with a 1% acetic acid solution in 10 mM TRIS base (Cat #: 161-0719, purchased from Bio-Rad Laboratories, Hercules, Calif.). The plates were subsequently left to dry for several hours or overnight. SRB that remained in the dried wells was solubilized by adding 100 μl of SRB solubilization solution (10 mM TRIS base) to each well, and placing the plates either on a gently-moving shaker or letting the plates remain stationary at room temperature until the SRB dissolves, which takes about five to ten minutes. The amount of SRB in each well, which correlated directly to the number of living cells at fixation, was determined spectrophotometrically at an absorbance of 565 nm by a microplate reader.
In these comparisons, the in vitro IC50 of a tested chemotherapeutic drug (D) in cell culture was compared to the drug's IC50 when drug treatment followed pretreatment of the cells with wilforlide A (Purchased from PI & PI Technology Inc. of Guangzhou, China or the National Institutes for Food and Drug Control in Beijing, China).
Triplicate wells were assigned to each experimental condition tested, and a 24 hour recovery period for the cells following the seeding of the wells was allowed. During the recovery period, the cells were incubated at 37° C. and 5% CO2.
At the end of the two hour pre-treatment period, 50 μl aliquots of the desired chemotherapeutic drug RPMI medium were added according to the amounts provided in Table 2.
After adding the various doses of chemotherapeutic drugs, as described above, the cells were incubated for an additional 72 hours under the same temperature and atmospheric conditions used for the pre-treatment step.
The cells were then incubated for 72 hours at 37° C. and 5% CO2. After the 72 hour incubation, sulforhodamine B (SRB) assays were performed as described in Example 1 to quantitate living cells.

`CC(=O)O[C@@]12CO[C@@H]1C[C@H](O)[C@@]1(C)C(=O)[C@H](O)C3=C(C)[C@@H](OC(=O)[C@H](O)[C@@H](NC(=O)OC(C)(C)C)c4ccccc4)C[C@@](O)([C@@H](OC(=O)c4ccccc4)[C@H]21)C3(C)C` [docetaxel] was tested, and the “% viable” value [1] was 100.0%, the “mean A” value [1] was 1.839 and the “A at 565 nm” value (no wilforlide A pre-Tx (control of Table 4), docetaxel 0.001 nM 72 h, background = 0.043) was 1.827 and 1.892 and 1.800. The “% viable” value [2] was 102.0%, the “mean A” value [2] was 1.876 and the “A at 565 nm” value (no wilforlide A pre-Tx (control of Table 4), docetaxel 0.1 nM 72 h, background = 0.043) was 1.875 and 1.878. The “% viable” value [3] was 97.7%, the “mean A” value [3] was 1.796 and the “A at 565 nm” value (no wilforlide A pre-Tx (control of Table 4), docetaxel 0.333 nM 72 h, background = 0.043) was 1.845 and 1.808 and 1.737. The “% viable” value [4] was 74.7%, the “mean A” value [4] was 1.374 and the “A at 565 nm” value (no wilforlide A pre-Tx (control of Table 4), docetaxel 1 nM 72 h, background = 0.043) was 1.452 and 1.366 and 1.306. For the same compound, the “% viable” value [5] was 46.3%, the “mean A” value [5] was 0.851 and the “A at 565 nm” value (no wilforlide A pre-Tx (control of Table 4), docetaxel 3.33 nM 72 h, background = 0.043) was 0.862 and 0.832 and 0.860. For the same compound, the “% viable” value [6] was 22.5%, the “mean A” value [6] was 0.415 and the “A at 565 nm” value (no wilforlide A pre-Tx (control of Table 4), docetaxel 10 nM 72 h, background = 0.043) was 0.432 and 0.409 and 0.404. For the same compound, the “% viable” value [7] was 16.4%, the “mean A” value [7] was 0.303 and the “A at 565 nm” value (no wilforlide A pre-Tx (control of Table 4), docetaxel 33.3 nM 72 h, background = 0.043) was 0.321 and 0.295 and 0.293. For the same compound, the “% viable” value [8] was 15.9%, the “mean A” value [8] was 0.293 and the “A at 565 nm” value (no wilforlide A pre-Tx (control of Table 4), docetaxel 100 nM 72 h, background = 0.043) was 0.300 and 0.270 and 0.311. For the same compound, the “% viable” value [9] was 100.0%, the “mean A” value [9] was 1.952 and the “A at 565 nm” value (no wilforlide A pre-Tx (control of Table 6), docetaxel 0.001 nM 72 h, background = 0.044) was 1.888 and 2.010 and 1.957. The “% viable” value [10] was 100.7%, the “mean A” value [10] was 1.966 and the “A at 565 nm” value (no wilforlide A pre-Tx (control of Table 6), docetaxel 0.1 nM 72 h, background = 0.044) was 1.980 and 1.925 and 1.992. For the same compound, the “% viable” value [11] was 93.1%, the “mean A” value [11] was 1.817 and the “A at 565 nm” value (no wilforlide A pre-Tx (control of Table 6), docetaxel 0.333 nM 72 h, background = 0.044) was 1.735 and 1.845 and 1.871. The “% viable” value [12] was 70.9%, the “mean A” value [12] was 1.384 and the “A at 565 nm” value (no wilforlide A pre-Tx (control of Table 6), docetaxel 1 nM 72 h, background = 0.044) was 1.398 and 1.314 and 1.441. For the same compound, the “% viable” value [13] was 46.6%, the “mean A” value [13] was 0.909 and the “A at 565 nm” value (no wilforlide A pre-Tx (control of Table 6), docetaxel 3.33 nM 72 h, background = 0.044) was 0.895 and 0.942 and 0.889. For the same compound, the “% viable” value [14] was 22.9%, the “mean A” value [14] was 0.447 and the “A at 565 nm” value (no wilforlide A pre-Tx (control of Table 6), docetaxel 10 nM 72 h, background = 0.044) was 0.464 and 0.427 and 0.450. For the same compound, the “% viable” value [15] was 18.1%, the “mean A” value [15] was 0.354 and the “A at 565 nm” value (no wilforlide A pre-Tx (control of Table 6), docetaxel 33.3 nM 72 h, background = 0.044) was 0.337 and 0.357 and 0.368. The “% viable” value [16] was 18.4%, the “mean A” value [16] was 0.360 and the “A at 565 nm” value (no wilforlide A pre-Tx (control of Table 6), docetaxel 100 nM 72 h, background = 0.044) was 0.349 and 0.366 and 0.365. The “% viable” value [17] was 100.0%, the “mean A” value [17] was 1.990 and the “% viable” value [18] was 101.2%. For the same compound, the “mean A” value [18] was 2.014, the “% viable” value [19] was 95.1% and the “mean A” value [19] was 1.892. For the same compound, the “% viable” value [20] was 71.2%, the “mean A” value [20] was 1.417 and the “% viable” value [21] was 45.8%. The “mean A” value [21] was 0.911, the “% viable” value [22] was 23.0% and the “mean A” value [22] was 0.458. For the same compound, the “% viable” value [23] was 17.8%, the “mean A” value [23] was 0.354 and the “% viable” value [24] was 17.4%. The “mean A” value [24] was 0.346, the “mean A” value (wilforlide A 0.6 μg/ml pre-Tx, docetaxel 0.001 nM 72 h) was 1.807 and the “A at 565 nm” value (wilforlide A 0.6 μg/ml pre-Tx, docetaxel 0.001 nM 72 h, background = 0.043) was 1.812 and 1.840 and 1.769. For the same compound, the “% viable” value [25] was 102.3%, the “mean A” value [25] was 1.848 and the “A at 565 nm” value (wilforlide A 0.6 μg/ml pre-Tx, docetaxel 0.1 nM 72 h, background = 0.043) was 1.855 and 1.874 and 1.816. For the same compound, the “% viable” value [26] was 99.3%, the “mean A” value [26] was 1.794 and the “A at 565 nm” value (wilforlide A 0.6 μg/ml pre-Tx, docetaxel 0.333 nM 72 h, background = 0.043) was 1.759 and 1.804 and 1.820. The “% viable” value [27] was 72.9%, the “mean A” value [27] was 1.317 and the “A at 565 nm” value (wilforlide A 0.6 μg/ml pre-Tx, docetaxel 1 nM 72 h, background = 0.043) was 1.303 and 1.386 and 1.263. The “% viable” value [28] was 44.9%, the “mean A” value [28] was 0.811 and the “A at 565 nm” value (wilforlide A 0.6 μg/ml pre-Tx, docetaxel 3.33 nM 72 h, background = 0.043) was 0.843 and 0.814 and 0.777. The “% viable” value [29] was 22.7%, the “mean A” value [29] was 0.409 and the “A at 565 nm” value (wilforlide A 0.6 μg/ml pre-Tx, docetaxel 10 nM 72 h, background = 0.043) was 0.408 and 0.421 and 0.400. The “% viable” value [30] was 17.5%, the “mean A” value [30] was 0.316 and the “A at 565 nm” value (wilforlide A 0.6 μg/ml pre-Tx, docetaxel 33.3 nM 72 h, background = 0.043) was 0.302 and 0.323. The “% viable” value [31] was 16.5%, the “mean A” value [31] was 0.299 and the “A at 565 nm” value (wilforlide A 0.6 μg/ml pre-Tx, docetaxel 100 nM 72 h, background = 0.043) was 0.290 and 0.287 and 0.320.
